Test results taken from PubChem BioAssay AID1963860 (Molecular Pharmacology Branch, DTP, NCI, 2024).
pIC50: −log10 of the molar value.

System: CN0375-F725-PDC KRAS spheroid viability
Experiment: Anticancer human tumor CN0375-F725-PDC patient-derived colon carcinoma cell line growth inhibition [KRAS2]
Settings: spheroids with HUVEC and MSC; for pIC50: curve of first compound; for viability, T/C: stronger effect = lower value
Procedure, shortened: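 KRAS-mutant tumor cells were grown as spheroids with HUVEC endothelial cells and human MSCs as stroma. Targeted agents were tested alone and with KRAS pathway inhibitors. Doses started at or near clinical Cmax, or 10 microM, descending half-log.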

[1] = second compound 0.1 µM, first compound 0.0316 µM
[2] = second compound 0.1 µM, first compound 0.1 µM
[3] = second compound 0.1 µM, first compound 0.316 µM
[4] = second compound 0.1 µM, first compound 1 µM
[5] = second compound 0.1 µM, first compound 3.16 µM
[6] = second compound 0.1 µM, first compound 10 µM
[7] = second compound 0.316 µM, first compound 0.0316 µM
[8] = second compound 0.316 µM, first compound 0.1 µM
[9] = second compound 0.316 µM, first compound 0.316 µM
[10] = second compound 0.316 µM, first compound 1 µM
[11] = second compound 0.316 µM, first compound 3.16 µM
[12] = second compound 0.316 µM, first compound 10 µM
[13] = second compound 1 µM, first compound 0.0316 µM
[14] = second compound 1 µM, first compound 0.1 µM
[15] = second compound 1 µM, first compound 0.316 µM
[16] = second compound 1 µM, first compound 1 µM
[17] = second compound 1 µM, first compound 3.16 µM
[18] = second compound 1 µM, first compound 10 µM
[19] = second compound 3.16 µM, first compound 0.0316 µM
[20] = second compound 3.16 µM, first compound 0.1 µM
[21] = second compound 3.16 µM, first compound 0.316 µM
[22] = second compound 3.16 µM, first compound 1 µM
[23] = second compound 3.16 µM, first compound 3.16 µM
[24] = second compound 3.16 µM, first compound 10 µM
[25] = second compound 10 µM, first compound 0.0316 µM
[26] = second compound 10 µM, first compound 0.1 µM
[27] = second compound 10 µM, first compound 0.316 µM
[28] = second compound 10 µM, first compound 1 µM
[29] = second compound 10 µM, first compound 3.16 µM
[30] = second compound 10 µM, first compound 10 µM
[31] = second compound 0.1 µM, first compound 0.000316 µM
[32] = second compound 0.1 µM, first compound 0.001 µM
[33] = second compound 0.1 µM, first compound 0.00316 µM
[34] = second compound 0.1 µM, first compound 0.01 µM
[35] = second compound 0.316 µM, first compound 0.000316 µM
[36] = second compound 0.316 µM, first compound 0.001 µM
[37] = second compound 0.316 µM, first compound 0.00316 µM
[38] = second compound 0.316 µM, first compound 0.01 µM
[39] = second compound 1 µM, first compound 0.000316 µM
[40] = second compound 1 µM, first compound 0.001 µM
[41] = second compound 1 µM, first compound 0.00316 µM
[42] = second compound 1 µM, first compound 0.01 µM
[43] = second compound 3.16 µM, first compound 0.000316 µM
[44] = second compound 3.16 µM, first compound 0.001 µM
[45] = second compound 3.16 µM, first compound 0.00316 µM
[46] = second compound 3.16 µM, first compound 0.01 µM
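Also: spheroids exposed to agents for 7 days.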

What does the source list for `CC1(C)CCC(CN2CCN(c3ccc(C(=O)NS(=O)(=O)c4ccc(NCC5CCOCC5)c([N+](=O)[O-])c4)c(Oc4cnc5[nH]ccc5c4)c3)CC2)=C(c2ccc(Cl)cc2)C1` + CC1OCC2(CCN(c3cnc(Sc4ccnc(N)c4Cl)c(N)n3)CC2)C1N?
pIC50 (second compound 0.1 µM): 5.46; pIC50 (second compound 0.316 µM): 5.56; pIC50 (second compound 1 µM): 5.59; pIC50 (second compound 3.16 µM): 5.67; pIC50 (second compound 10 µM): 5.79; viability, T/C [1]: 103%; viability, T/C [2]: 100%; viability, T/C [3]: 104%; viability, T/C [4]: 103%; viability, T/C [5]: 51.6%; viability, T/C [6]: 31.6%; viability, T/C [7]: 95.4%; viability, T/C [8]: 100%; viability, T/C [9]: 94.6%; viability, T/C [10]: 95.8%; viability, T/C [11]: 43.8%; viability, T/C [12]: 25.1%; viability, T/C [13]: 90.7%; viability, T/C [14]: 91.5%; viability, T/C [15]: 89.9%; viability, T/C [16]: 86.3%; viability, T/C [17]: 42.5%; viability, T/C [18]: 22.2%; viability, T/C [19]: 84.4%; viability, T/C [20]: 87.1%; viability, T/C [21]: 87.4%; viability, T/C [22]: 82.8%; viability, T/C [23]: 32.9%; viability, T/C [24]: 13.9%; viability, T/C [25]: 67.7%; viability, T/C [26]: 73.2%; viability, T/C [27]: 77.2%; viability, T/C [28]: 69.6%; viability, T/C [29]: 22%; viability, T/C [30]: 8.8%

With `CC(C)n1nc(-c2ccc3oc(N)nc3c2)c2c(N)ncnc21` + C=CC(=O)N1CCN(c2nc(OCC3CCCN3C)nc3c2CCN(c2cccc4cccc(C)c24)C3)CC1CC#N as the molecule, how does the pIC50 (second compound 0.0316 µM) read?
The pIC50 was 7.27.

What about the pIC50 (second compound 0.1 µM) of the same molecule?
The pIC50 was 7.41.

What about the pIC50 (second compound 0.316 µM) of the same molecule?
Its pIC50 is 7.25.

What about the pIC50 (second compound 1 µM) of the same molecule?
The pIC50 was 7.37.

And the pIC50 (second compound 3.16 µM)?
The pIC50 was > 9.50.

And the viability, T/C (second compound 0.0316 µM, first compound 0.000316 µM)?
The viability, T/C was 106%.

What about the viability, T/C (second compound 0.0316 µM, first compound 0.001 µM) of the same molecule?
Its viability, T/C is 96.5%.

What about the viability, T/C (second compound 0.0316 µM, first compound 0.00316 µM) of the same molecule?
The viability, T/C was 76.8%.

What about the viability, T/C (second compound 0.0316 µM, first compound 0.01 µM) of the same molecule?
Its viability, T/C is 70.1%.

And the viability, T/C (second compound 0.0316 µM, first compound 0.0316 µM)?
The viability, T/C was 57.5%.

What about the viability, T/C (second compound 0.0316 µM, first compound 0.1 µM) of the same molecule?
Its viability, T/C is 42.4%.

And the viability, T/C [31]?
Its viability, T/C is 103%.

What about the viability, T/C [32] of the same molecule?
The viability, T/C was 95.2%.

What about the viability, T/C [33] of the same molecule?
Its viability, T/C is 78.8%.

What about the viability, T/C [34] of the same molecule?
The viability, T/C was 63.8%.

And the viability, T/C [1]?
The viability, T/C was 51.9%.

What about the viability, T/C [2] of the same molecule?
Its viability, T/C is 43.9%.

And the viability, T/C [35]?
Its viability, T/C is 103%.

And the viability, T/C [36]?
Its viability, T/C is 98%.

What about the viability, T/C [37] of the same molecule?
Its viability, T/C is 78.3%.

And the viability, T/C [38]?
The viability, T/C was 63.7%.

And the viability, T/C [7]?
Its viability, T/C is 56.6%.

What about the viability, T/C [8] of the same molecule?
The viability, T/C was 45%.

What about the viability, T/C [39] of the same molecule?
Its viability, T/C is 87.4%.

And the viability, T/C [40]?
Its viability, T/C is 91.2%.

And the viability, T/C [41]?
Its viability, T/C is 75.1%.

And the viability, T/C [42]?
Its viability, T/C is 60%.

What about the viability, T/C [13] of the same molecule?
Its viability, T/C is 53.2%.

What about the viability, T/C [14] of the same molecule?
Its viability, T/C is 46.1%.

And the viability, T/C [43]?
Its viability, T/C is 37.8%.

And the viability, T/C [44]?
The viability, T/C was 11.5%.

What about the viability, T/C [45] of the same molecule?
Its viability, T/C is 31.4%.

And the viability, T/C [46]?
The viability, T/C was 1.09%.

And the viability, T/C [19]?
The viability, T/C was 11.5%.

What about the viability, T/C [20] of the same molecule?
The viability, T/C was 8.34%.

With `CC(=O)Nc1cccc(-n2c(=O)n(C3CC3)c(=O)c3c(Nc4ccc(I)cc4F)n(C)c(=O)c(C)c32)c1` + C=CC(=O)N1CCN(c2nc(=O)n(-c3c(C)ccnc3C(C)C)c3nc(-c4c(O)cccc4F)c(F)cc23)C(C)C1 as the molecule, how does the pIC50 (second compound 0.1 µM) read?
The pIC50 was 8.24.

What about the pIC50 (second compound 0.316 µM) of the same molecule?
Its pIC50 is 8.22.

And the pIC50 (second compound 1 µM)?
Its pIC50 is 8.31.

And the pIC50 (second compound 3.16 µM)?
Its pIC50 is 8.22.

What about the pIC50 (second compound 10 µM) of the same molecule?
Its pIC50 is 8.72.

And the viability, T/C (second compound 0.1 µM, first compound 0.0001 µM)?
The viability, T/C was 94%.

And the viability, T/C [31]?
The viability, T/C was 84.2%.

What about the viability, T/C [32] of the same molecule?
Its viability, T/C is 71.2%.

What about the viability, T/C [33] of the same molecule?
Its viability, T/C is 55.7%.

What about the viability, T/C [34] of the same molecule?
The viability, T/C was 45.1%.

What about the viability, T/C [1] of the same molecule?
Its viability, T/C is 32.4%.

And the viability, T/C (second compound 0.316 µM, first compound 0.0001 µM)?
Its viability, T/C is 101%.

What about the viability, T/C [35] of the same molecule?
The viability, T/C was 84%.

What about the viability, T/C [36] of the same molecule?
Its viability, T/C is 72.8%.

And the viability, T/C [37]?
Its viability, T/C is 54.5%.

What about the viability, T/C [38] of the same molecule?
The viability, T/C was 45.7%.

And the viability, T/C [7]?
The viability, T/C was 34.6%.

What about the viability, T/C (second compound 1 µM, first compound 0.0001 µM) of the same molecule?
Its viability, T/C is 98.1%.

What about the viability, T/C [39] of the same molecule?
Its viability, T/C is 86.9%.

What about the viability, T/C [40] of the same molecule?
Its viability, T/C is 77.2%.

And the viability, T/C [41]?
Its viability, T/C is 51.1%.

And the viability, T/C [42]?
The viability, T/C was 44.9%.

And the viability, T/C [13]?
The viability, T/C was 33.6%.

What about the viability, T/C (second compound 3.16 µM, first compound 0.0001 µM) of the same molecule?
The viability, T/C was 97.7%.

And the viability, T/C [43]?
Its viability, T/C is 92.2%.

And the viability, T/C [44]?
Its viability, T/C is 73%.

What about the viability, T/C [45] of the same molecule?
Its viability, T/C is 57.1%.

And the viability, T/C [46]?
Its viability, T/C is 46.2%.

What about the viability, T/C [19] of the same molecule?
Its viability, T/C is 32.9%.

And the viability, T/C (second compound 10 µM, first compound 0.0001 µM)?
Its viability, T/C is 93.7%.

And the viability, T/C (second compound 10 µM, first compound 0.000316 µM)?
The viability, T/C was 85.1%.

And the viability, T/C (second compound 10 µM, first compound 0.001 µM)?
The viability, T/C was 56.3%.

And the viability, T/C (second compound 10 µM, first compound 0.00316 µM)?
Its viability, T/C is 43.9%.

And the viability, T/C (second compound 10 µM, first compound 0.01 µM)?
Its viability, T/C is 35.8%.

And the viability, T/C [25]?
Its viability, T/C is 27.8%.

Which results are given for `CCNC(=O)CC1N=C(c2ccc(Cl)cc2)c2cc(OC)ccc2-n2c(C)nnc21` (stereo not given) + COc1cc2nc(C)nc(NC(C)c3cc(N)cc(C(F)(F)F)c3)c2cc1OC1CCOC1?
pIC50 (second compound 0.1 µM): 5.07; pIC50 (second compound 0.316 µM): 5.18; pIC50 (second compound 1 µM): 5.14; pIC50 (second compound 3.16 µM): 5.71; pIC50 (second compound 10 µM): > 7.50; viability, T/C [1]: 97.9%; viability, T/C [2]: 88.2%; viability, T/C [3]: 77.7%; viability, T/C [4]: 78.2%; viability, T/C [5]: 63.7%; viability, T/C [6]: 45.8%; viability, T/C [7]: 94.2%; viability, T/C [8]: 87.6%; viability, T/C [9]: 78.1%; viability, T/C [10]: 71.7%; viability, T/C [11]: 63.4%; viability, T/C [12]: 42.5%; viability, T/C [13]: 87.4%; viability, T/C [14]: 84.5%; viability, T/C [15]: 71.2%; viability, T/C [16]: 69.7%; viability, T/C [17]: 60.6%; viability, T/C [18]: 45.4%; viability, T/C [19]: 79.1%; viability, T/C [20]: 79.4%; viability, T/C [21]: 64.9%; viability, T/C [22]: 58.6%; viability, T/C [23]: 44.8%; viability, T/C [24]: 32.5%; viability, T/C [25]: 12.7%; viability, T/C [26]: 8.68%; viability, T/C [27]: 5%; viability, T/C [28]: 3.29%; viability, T/C [29]: 2.26%; viability, T/C [30]: 1.29%
